This note sets out measurements from patent publication US9353082B2, “Pharmaceutical compounds” (BIAL—PORTELA & CA, S.A., priority 2008, dated 2016).

The target in assay [1] is T1, FAAH (Rattus norvegicus, UniProt P97612).
T1 construct: Frozen brains (without cerebellum) from Wistar rats were used; from tissue; host or cells: Wistar rat brain (without cerebellum), washed membrane pellets
T1 sequence (P97612 1-579): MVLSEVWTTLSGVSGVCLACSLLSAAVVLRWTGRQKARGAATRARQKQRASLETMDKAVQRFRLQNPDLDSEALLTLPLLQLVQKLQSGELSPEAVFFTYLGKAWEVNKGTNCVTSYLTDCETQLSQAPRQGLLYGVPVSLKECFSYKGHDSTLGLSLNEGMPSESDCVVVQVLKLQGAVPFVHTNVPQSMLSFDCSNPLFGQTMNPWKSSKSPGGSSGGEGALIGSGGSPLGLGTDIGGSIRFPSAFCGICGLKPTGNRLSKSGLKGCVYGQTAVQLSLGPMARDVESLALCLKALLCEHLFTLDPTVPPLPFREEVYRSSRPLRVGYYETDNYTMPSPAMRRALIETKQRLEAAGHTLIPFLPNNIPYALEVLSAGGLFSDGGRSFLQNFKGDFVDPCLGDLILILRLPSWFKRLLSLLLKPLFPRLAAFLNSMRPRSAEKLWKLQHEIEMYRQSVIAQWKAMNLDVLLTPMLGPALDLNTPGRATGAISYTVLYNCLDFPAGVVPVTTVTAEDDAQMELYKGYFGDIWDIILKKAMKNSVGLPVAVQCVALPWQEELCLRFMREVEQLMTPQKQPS
Description: In vitro FAAH activity in rat brain membranes, 3H-AEA substrate, % of control. Format: biochemical, Wistar rats. Particulars: 100 nM test compound, low value = strong inhibitor. In outline:
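FAAH activity measured as 3H-ethanolamine released from 2 μM [3H]AEA over 10 min by rat brain membrane preparation, after 15 min 37 °C preincubation with test compound at 10 or 0.1 μM. Charcoal-separated supernatant scintillation-counted; values expressed as % of control minus no-protein blank.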

Assay [2] has as its target T2, FAAH (Mus musculus, UniProt O08914).
T2 construct: A fragment of liver, left lung lobe and brain without cerebellum were removed; from tissue; host or cells: male NMRI mice; brain (without cerebellum) and liver homogenates
T2 sequence (O08914 1-579): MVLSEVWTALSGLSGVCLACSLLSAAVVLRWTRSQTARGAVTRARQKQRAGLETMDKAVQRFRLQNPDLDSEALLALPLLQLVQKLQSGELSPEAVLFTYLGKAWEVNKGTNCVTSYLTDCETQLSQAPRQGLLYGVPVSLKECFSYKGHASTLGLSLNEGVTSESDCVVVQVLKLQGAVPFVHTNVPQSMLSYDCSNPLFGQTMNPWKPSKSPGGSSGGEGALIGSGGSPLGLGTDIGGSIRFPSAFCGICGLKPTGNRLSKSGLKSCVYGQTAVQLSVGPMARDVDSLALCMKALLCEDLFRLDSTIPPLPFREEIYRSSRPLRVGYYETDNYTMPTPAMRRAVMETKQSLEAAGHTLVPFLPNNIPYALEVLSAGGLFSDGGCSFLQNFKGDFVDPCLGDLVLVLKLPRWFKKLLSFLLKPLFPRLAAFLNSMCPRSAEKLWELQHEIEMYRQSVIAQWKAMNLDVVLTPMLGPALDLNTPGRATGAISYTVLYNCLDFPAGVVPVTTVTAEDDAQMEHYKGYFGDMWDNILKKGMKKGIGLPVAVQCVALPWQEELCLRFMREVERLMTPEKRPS
Kind of assay: In vivo FAAH inhibition after oral dosing, remaining activity in liver homogenate (LVh, peripheral tissue). Particulars: liver homogenate, 3 mg/kg, 8 h. The arrangement: species or system NMRI mice. In outline: (§1)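 Remaining FAAH activity is given as % of vehicle-treated controls after blank subtraction, measured by radiolabelled AEA hydrolysis (2 μM AEA, 5 nM 3H-AEA, 37 °C) in brain (10 min) or liver (7 min) homogenates. These came from fasted male NMRI mice dosed orally at 30 or 3 mg/kg.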

The target in assay [3] is T2, FAAH. Kind of assay: In vivo FAAH inhibition after oral dosing, remaining activity in brain homogenate (BRh, central nervous tissue). The arrangement: species or system NMRI mice. Particulars: brain homogenate, 3 mg/kg, 8 h. In outline:
as §1

Consider `O=C(NC1CCCCC1)n1nnc2ccccc21` [Compound 87, N-cyclohexyl-1H-benzo[d][1,2,3]triazole-1-carboxamide], for which the “In Vitro FAAH activity, 100 nM” value in assay [1] was 0 % of control. Further, the “In Vivo LVh 3 mg/kg 8 h, remaining FAAH activity” value in assay [2] is reported as 4 % of control. The “In Vivo BRh 3 mg/kg 8 h, remaining FAAH activity” value in assay [3] is recorded as 3.4 % of control.
Regarding `Cc1ccc(OC2CCN(C(=O)n3nnc4ccccc43)CC2)cc1` [Compound 99, (1H-benzo[d][1,2,3]triazol-1-yl)(4-(p-tolyloxy)piperidin-1-yl)methanone], the “In Vitro FAAH activity, 100 nM” value in assay [1] is 0.2 % of control. Further, in assay [2], the “In Vivo LVh 3 mg/kg 8 h, remaining FAAH activity” value is reported as 71.4 % of control. In addition, the “In Vivo BRh 3 mg/kg 8 h, remaining FAAH activity” value in assay [3] is reported as 99.1 % of control.
Turning to `O=C(N1CCC(CCc2ccccc2)CC1)n1nnc2ccccc21` [Compound 100, (1H-benzo[d][1,2,3]triazol-1-yl)(4-phenethylpiperidin-1-yl)methanone], in assay [1], the “In Vitro FAAH activity, 100 nM” value is listed as 0.2 % of control. For the same compound, the “In Vivo LVh 3 mg/kg 8 h, remaining FAAH activity” value in assay [2] is on record as 40.5 % of control. Also, in assay [3], the “In Vivo BRh 3 mg/kg 8 h, remaining FAAH activity” value was 68.1 % of control.
Regarding `O=C(N1CCC(CCCc2ccccc2)CC1)n1nnc2ccccc21` [Compound 110, (1H-benzo[d][1,2,3]triazol-1-yl)(4-(3-phenylpropyl)piperidin-1-yl)methanone], in assay [1], the “In Vitro FAAH activity, 100 nM” value is recorded as 0.1 % of control. The “In Vivo LVh 3 mg/kg 8 h, remaining FAAH activity” value in assay [2] is recorded as 10.2 % of control. Moreover, the “In Vivo BRh 3 mg/kg 8 h, remaining FAAH activity” value in assay [3] is given as 51.7 % of control.
On the same counts, the results for `CN(C(=O)n1cnc(-c2ccc(C(N)=O)cc2)c1)c1ccccc1` [Compound 113, 4-(4-carbamoylphenyl)-N-methyl-N-phenyl-1H-imidazole-1-carboxamide] are 90.3 % of control, 32.3 % of control and 84.1 % of control.
On the same counts, the results for `O=C(N1CCC(c2ccncc2)CC1)n1nnc2ccccc21` [Compound 114, (1H-benzo[d][1,2,3]triazol-1-yl)(4-(pyridin-4-yl)piperidin-1-yl)methanone] are 0.1 % of control, 109.9 % of control and 102.9 % of control.
On the same counts, the results for `O=C(N1CCC(c2nc(-c3cccnc3)no2)CC1)n1nnc2ccccc21` [Compound 116, (1H-benzo[d][1,2,3]triazol-1-yl)(4-(3-(pyridin-3-yl)-1,2,4-oxadiazol-5-yl)piperidin-1-yl)methanone] are 0.5 % of control, 113.2 % of control and 126.2 % of control.
Consider `O=C(N1CCN(Cc2ccc(F)cc2)CC1)n1nnc2ccccc21` [Compound 121, (1H-benzo[d][1,2,3]triazol-1-yl)(4-(4-fluorobenzyl)piperazin-1-yl)methanone], for which the “In Vitro FAAH activity, 100 nM” value in assay [1] is 0 % of control. For the same compound, in assay [2], the “In Vivo LVh 3 mg/kg 8 h, remaining FAAH activity” value was 116.1 % of control. In assay [3], the “In Vivo BRh 3 mg/kg 8 h, remaining FAAH activity” value is on record as 118.6 % of control.
On the same counts, the results for `O=C(NC12CC3CC(CC(C3)C1)C2)n1nnc2ccccc21` [Compound 126, N-adamantyl-1H-benzo[d][1,2,3]triazole-1-carboxamide] are 0 % of control, 2.2 % of control and 0.2 % of control.
On the same counts, the results for `O=C(N1CCN(C2CCCCC2)CC1)n1nnc2ccccc21` [Compound 127, (1H-benzo[d][1,2,3]triazol-1-yl)(4-cyclohexylpiperazin-1-yl)methanone] are 0.1 % of control, 107.3 % of control and 111.5 % of control.
Taken in the same sequence, the figures for `CN(CCCCCc1ccccc1)C(=O)n1nnc2ccccc21` [Compound 129, N-methyl-N-(5-phenylpentyl)-1H-benzo[d][1,2,3]triazole-1-carboxamide] were 0 % of control, 2 % of control and 2.5 % of control.
With `O=C(N1CCC(OCCCc2ccccc2)CC1)n1nnc2ccccc21` [Compound 135, (1H-benzo[d][1,2,3]triazol-1-yl)(4-(3-phenylpropoxy)piperidin-1-yl)methanone], the “In Vitro FAAH activity, 100 nM” value in assay [1] is on record as 0.1 % of control. In assay [2], the “In Vivo LVh 3 mg/kg 8 h, remaining FAAH activity” value is listed as 30.1 % of control. The “In Vivo BRh 3 mg/kg 8 h, remaining FAAH activity” value in assay [3] was 26.5 % of control.
In the case of `CN1CCN(c2ccc(-c3ncn(C(=O)N4CCOCC4)n3)cc2)CC1` [Compound 139, (3-(4-(4-methylpiperazin-1-yl)phenyl)-1H-1,2,4-triazol-1-yl)(morpholino)methanone], the “In Vitro FAAH activity, 100 nM” value in assay [1] was 80.2 % of control. Further, the “In Vivo LVh 3 mg/kg 8 h, remaining FAAH activity” value in assay [2] is 105.7 % of control. For the same compound, the “In Vivo BRh 3 mg/kg 8 h, remaining FAAH activity” value in assay [3] was 97.1 % of control.
As for `CN(C(=O)n1nnc2ccccc21)C1CCC2(CC1)OCC(C)(C)CO2` [Compound 143, N-(3,3-dimethyl-1,5-dioxaspiro[5.5]undec-9-yl)-N-methyl-1H-benzotriazole-1-carboxamide], the “In Vitro FAAH activity, 100 nM” value in assay [1] was 2.5 % of control. In assay [2], the “In Vivo LVh 3 mg/kg 8 h, remaining FAAH activity” value was 0.7 % of control. In addition, the “In Vivo BRh 3 mg/kg 8 h, remaining FAAH activity” value in assay [3] was 0.4 % of control.
Take `COc1ccc(OCCC2CCN(C(=O)n3nnc4ccccc43)CC2)cc1` [Compound 144, (1H-benzo[d][1,2,3]triazol-1-yl)(4-(2-(4-methoxyphenoxy)ethyl)piperidin-1-yl)methanone]: the “In Vitro FAAH activity, 100 nM” value in assay [1] is on record as 0.1 % of control. Besides, the “In Vivo LVh 3 mg/kg 8 h, remaining FAAH activity” value in assay [2] is listed as 17.6 % of control. Moreover, in assay [3], the “In Vivo BRh 3 mg/kg 8 h, remaining FAAH activity” value was 68.2 % of control.
Taken in the same sequence, the figures for `Cl.N#Cc1ccc(Oc2ccc(-c3ncn(C(=O)N4CCN(c5ccccc5)CC4)n3)cc2)cc1` [Compound 145, 4-(4-(1-(4-phenylpiperazine-1-carbonyl)-1H-1,2,4-triazol-3-yl)phenoxy)benzonitrile hydrochloride] were 0.3 % of control, 116.5 % of control and 89.9 % of control.
On the same counts, the results for `NC(=O)c1ccc(Oc2ccc(-c3ncn(C(=O)N4CCOCC4)n3)cc2)cc1` [Compound 147, 4-(4-(1-(morpholine-4-carbonyl)-1H-1,2,4-triazol-3-yl)phenoxy)benzamide] are 55.1 % of control, 103 % of control and 124.4 % of control.
On to `NC(=O)c1ccc(Oc2ccc(-c3ncn(C(=O)N4CCN(c5ccccc5)CC4)n3)cc2)cc1` [Compound 148, 4-(4-(1-(4-phenylpiperazine-1-carbonyl)-1H-1,2,4-triazol-3-yl)phenoxy)benzamide], for which the “In Vitro FAAH activity, 100 nM” value in assay [1] is listed as 0.3 % of control. Also, the “In Vivo LVh 3 mg/kg 8 h, remaining FAAH activity” value in assay [2] is 87.6 % of control. For the same compound, the “In Vivo BRh 3 mg/kg 8 h, remaining FAAH activity” value in assay [3] was 113.7 % of control.
As for `CN(Cc1ccccc1)C(=O)n1cnc(-c2ccc(F)cc2)c1` [Compound 150, N-benzyl-4-(4-fluorophenyl)-N-methyl-1H-imidazole-1-carboxamide], in assay [1], the “In Vitro FAAH activity, 100 nM” value was 1.2 % of control. Besides, the “In Vivo LVh 3 mg/kg 8 h, remaining FAAH activity” value in assay [2] is 3.8 % of control. Further, in assay [3], the “In Vivo BRh 3 mg/kg 8 h, remaining FAAH activity” value was 5.6 % of control.
